Test results reported in US20250312497A1, “METHOD OF TREATING PROSTATE CANCER” (Novartis AG, priority 2022, published 2025).
Several values for one entry are separate records, joined by “and”; a condition that tells them apart may be missing. Equal entries are not always repeated.

Test system: PSMA-positive mCRPC participants
Assay: PSMAfore phase III: adverse events, serious adverse events, safety topics and deaths (safety set)
Assay type: in vivo, human
Conditions: DCO 2 Oct 2022
[1] = most common AEs (>10% in either arm)

Question: O=C([O-])CN1CCN(CC(=O)[O-])CCN(CC(=O)NCC2CCC(C(=O)N[C@@H](Cc3ccc4ccccc4c3)C(=O)NCCCC[C@H](NC(=O)N[C@@H](CCC(=O)O)C(=O)O)C(=O)O)CC2)CCN(CC(=O)[O-])CC1.[177Lu+3] (stereo partly shown) [[177Lu]Lu-PSMA-617, lutetium (177Lu) vipivotide tetraxetan] was tested. Which “Fatal serious AEs” value did it give?
Answer: The value was “Fatal serious AEs: 1.8% in [177Lu]Lu-PSMA-”.

Question: And the “death during the study due to study indication” value?
Answer: The value was 4.4%.

Question: And the “most frequent serious adverse event: urinary tract infection” value?
Answer: The value was 1.8%.

Question: And the “on-treatment deaths due to Study indication” value?
Answer: Its value is 0%.

Question: What about the “subjects who received at least one dose and died during the study” value of the same compound?
Answer: The value was 18 (8%) n (%).

Question: What about the “AEs leading to discontinuation, Treatment-related” value (ARDT prior to crossover) of the same compound?
Answer: The value was 1.8%.

Question: What about the “Grade≥3 AEs, Treatment-related” value (ARDT prior to crossover) of the same compound?
Answer: Its value is 6.6%.

Question: What about the “Serious AEs, Treatment-related” value (ARDT prior to crossover) of the same compound?
Answer: The value was 2.2%.

Question: And the Anaemia [1]?
Answer: Its Anaemia is 16.8%.

Question: And the Arthralgia [1]?
Answer: Its Arthralgia is 11.5%.

Question: And the Asthenia [1]?
Answer: The Asthenia was 23.9%.

Question: And the Back pain [1]?
Answer: The Back pain was 7.1%.

Question: What about the COVID-19 [1] of the same compound?
Answer: The COVID-19 was 11.1%.

Question: What about the Constipation [1] of the same compound?
Answer: The Constipation was 15.5%.

Question: And the Decreased appetite [1]?
Answer: The Decreased appetite was 12.8%.

Question: What about the Diarrhoea [1] of the same compound?
Answer: The Diarrhoea was 12.4%.

Question: And the Dry mouth [1]?
Answer: Its Dry mouth is 44.7%.

Question: And the Fatigue [1]?
Answer: The Fatigue was 18.1%.

Question: What about the Nausea [1] of the same compound?
Answer: The Nausea was 25.2%.

Question: And the “On-treatment deaths: Number of subjects who died” value (safety set)?
Answer: The value was 4 (1.8%) n (%) and 4 (1.8) n (%).

Question: And the “On-treatment deaths: Other” value (safety set)?
Answer: The value was 4 (1.8) n (%).

Question: And the “On-treatment deaths: Study indication” value (safety set)?
Answer: The value was 0 n (%).

Question: What about the “AE preferred term: Anaemia” value (safety set, All Grades) of the same compound?
Answer: The value was 38 (16.8) n (%).

Question: And the “AE preferred term: Arthralgia” value (safety set, All Grades)?
Answer: Its value is 26 (11.5) n (%).

Question: What about the “AE preferred term: Asthenia” value (safety set, All Grades) of the same compound?
Answer: Its value is 54 (23.9) n (%).

Question: And the “AE preferred term: Back pain” value (safety set, All Grades)?
Answer: The value was 16 (7.1) n (%).

Question: And the “AE preferred term: COVID-19” value (safety set, All Grades)?
Answer: The value was 25 (11.1) n (%).

Question: And the “AE preferred term: Constipation” value (safety set, All Grades)?
Answer: Its value is 35 (15.5) n (%).

Question: What about the “AE preferred term: Decreased appetite” value (safety set, All Grades) of the same compound?
Answer: Its value is 29 (12.8) n (%).

Question: And the “AE preferred term: Diarrhoea” value (safety set, All Grades)?
Answer: Its value is 28 (12.4) n (%).

Question: And the “AE preferred term: Dry mouth” value (safety set, All Grades)?
Answer: The value was 101 (44.7) n (%).

Question: And the “AE preferred term: Fatigue” value (safety set, All Grades)?
Answer: Its value is 41 (18.1) n (%).

Question: What about the “AE preferred term: Nausea” value (safety set, All Grades) of the same compound?
Answer: The value was 57 (25.2) n (%).

Question: What about the “Adverse events (subjects with at least one event)” value (safety set, All Grades) of the same compound?
Answer: The value was 202 (89.4) n (%).

Question: What about the “Adverse events leading to discontinuation” value (safety set, All Grades) of the same compound?
Answer: Its value is 9 (4.0) n (%).

Question: And the “Adverse events leading to discontinuation, Treatment-related” value (safety set, All Grades)?
Answer: The value was 4 (1.8) n (%).

Question: And the “Adverse events leading to dose adjustment” value (safety set, All Grades)?
Answer: Its value is 5 (2.2) n (%).

Question: And the “Adverse events leading to dose interruption” value (safety set, All Grades)?
Answer: Its value is 16 (7.1) n (%).

Question: What about the “Adverse events requiring additional therapy” value (safety set, All Grades) of the same compound?
Answer: The value was 121 (53.5) n (%).

Question: And the “Adverse events, Treatment-related” value (safety set, All Grades)?
Answer: Its value is 170 (75.2) n (%).

Question: What about the “Fatal serious adverse events” value (safety set, All Grades) of the same compound?
Answer: The value was 4 (1.8) n (%).

Question: What about the “Fatal serious adverse events, Treatment-related” value (safety set, All Grades) of the same compound?
Answer: The value was 0 n (%).

Question: And the “Safety topic: Dry eye” value (safety set, All Grades)?
Answer: The value was 6 (2.7) n (%).

Question: And the “Safety topic: Dry mouth” value (safety set, All Grades)?
Answer: The value was 101 (44.7) n (%).

Question: And the “Safety topic: Fractures” value (safety set, All Grades)?
Answer: The value was 3 (1.3) n (%).

Question: What about the “Safety topic: Hepatotoxicity” value (safety set, All Grades) of the same compound?
Answer: The value was 20 (8.8) n (%).

Question: And the “Safety topic: Intracranial haemorrhage” value (safety set, All Grades)?
Answer: Its value is 2 (0.9) n (%).

Question: What about the “Safety topic: Myelosuppression” value (safety set, All Grades) of the same compound?
Answer: Its value is 56 (24.8) n (%).

Question: And the “Safety topic: QT prolongation” value (safety set, All Grades)?
Answer: Its value is 2 (0.9) n (%).

Question: And the “Safety topic: Radiotoxicity including inadvertent exposure” value (safety set, All Grades)?
Answer: Its value is 0 n (%).

Question: What about the “Safety topic: Renal toxicity” value (safety set, All Grades) of the same compound?
Answer: Its value is 11 (4.9) n (%).

Question: What about the “Safety topic: Second primary malignancies” value (safety set, All Grades) of the same compound?
Answer: Its value is 3 (1.3) n (%).

Question: What about the “Serious AE preferred term: Anaemia” value (safety set, All Grades) of the same compound?
Answer: Its value is 2 (0.9) n (%).

Question: What about the “Serious AE preferred term: Haematuria” value (safety set, All Grades) of the same compound?
Answer: The value was 0 n (%).

Question: And the “Serious AE preferred term: Pain” value (safety set, All Grades)?
Answer: Its value is 1 (0.4) n (%).

Question: And the “Serious AE preferred term: Spinal cord compression” value (safety set, All Grades)?
Answer: Its value is 2 (0.9) n (%).

Question: And the “Serious AE preferred term: Urinary retention” value (safety set, All Grades)?
Answer: The value was 1 (0.4) n (%).

Question: And the “Serious AE preferred term: Urinary tract infection” value (safety set, All Grades)?
Answer: Its value is 4 (1.8) n (%).

Question: What about the “Serious adverse events (subjects with at least one event)” value (safety set, All Grades) of the same compound?
Answer: The value was 35 (15.5) n (%).

Question: And the “Serious adverse events, Treatment-related” value (safety set, All Grades)?
Answer: The value was 5 (2.2) n (%).

Question: And the “AE preferred term: Anaemia” value (safety set, Grade >=3)?
Answer: The value was 10 (4.4) n (%).

Question: What about the “AE preferred term: Arthralgia” value (safety set, Grade >=3) of the same compound?
Answer: The value was 0 n (%).

Question: And the “AE preferred term: Asthenia” value (safety set, Grade >=3)?
Answer: The value was 1 (0.4) n (%).

Question: And the “AE preferred term: Back pain” value (safety set, Grade >=3)?
Answer: The value was 2 (0.9) n (%).

Question: What about the “AE preferred term: COVID-19” value (safety set, Grade >=3) of the same compound?
Answer: Its value is 1 (0.4) n (%).

Question: And the “AE preferred term: Constipation” value (safety set, Grade >=3)?
Answer: Its value is 1 (0.4) n (%).

Question: And the “AE preferred term: Decreased appetite” value (safety set, Grade >=3)?
Answer: Its value is 0 n (%).

Question: And the “AE preferred term: Diarrhoea” value (safety set, Grade >=3)?
Answer: Its value is 0 n (%).

Question: What about the “AE preferred term: Dry mouth” value (safety set, Grade >=3) of the same compound?
Answer: The value was 1 (0.4) n (%).

Question: What about the “AE preferred term: Fatigue” value (safety set, Grade >=3) of the same compound?
Answer: Its value is 0 n (%).

Question: What about the “AE preferred term: Nausea” value (safety set, Grade >=3) of the same compound?
Answer: Its value is 0 n (%).

Question: What about the “Adverse events (subjects with at least one event)” value (safety set, Grade >=3) of the same compound?
Answer: Its value is 53 (23.5) n (%).

Question: And the “Adverse events leading to discontinuation” value (safety set, Grade >=3)?
Answer: Its value is 6 (2.7) n (%).

Question: And the “Adverse events leading to discontinuation, Treatment-related” value (safety set, Grade >=3)?
Answer: The value was 3 (1.3) n (%).

Question: And the “Adverse events leading to dose adjustment” value (safety set, Grade >=3)?
Answer: The value was 1 (0.4) n (%).

Question: What about the “Adverse events leading to dose interruption” value (safety set, Grade >=3) of the same compound?
Answer: Its value is 9 (4.0) n (%).

Question: What about the “Adverse events requiring additional therapy” value (safety set, Grade >=3) of the same compound?
Answer: Its value is 34 (15.0) n (%).

Question: And the “Adverse events, Treatment-related” value (safety set, Grade >=3)?
Answer: The value was 15 (6.6) n (%).

Question: And the “Fatal serious adverse events” value (safety set, Grade >=3)?
Answer: The value was 4 (1.8) n (%).

Question: And the “Fatal serious adverse events, Treatment-related” value (safety set, Grade >=3)?
Answer: Its value is 0 n (%).

Question: What about the “Safety topic: Dry eye” value (safety set, Grade >=3) of the same compound?
Answer: Its value is 0 n (%).

Question: What about the “Safety topic: Dry mouth” value (safety set, Grade >=3) of the same compound?
Answer: Its value is 1 (0.4) n (%).

Question: And the “Safety topic: Fractures” value (safety set, Grade >=3)?
Answer: Its value is 1 (0.4) n (%).

Question: What about the “Safety topic: Hepatotoxicity” value (safety set, Grade >=3) of the same compound?
Answer: The value was 8 (3.5) n (%).

Question: And the “Safety topic: Intracranial haemorrhage” value (safety set, Grade >=3)?
Answer: The value was 1 (0.4) n (%).

Question: What about the “Safety topic: Myelosuppression” value (safety set, Grade >=3) of the same compound?
Answer: Its value is 19 (8.4) n (%).

Question: What about the “Safety topic: QT prolongation” value (safety set, Grade >=3) of the same compound?
Answer: Its value is 1 (0.4) n (%).

Question: What about the “Safety topic: Radiotoxicity including inadvertent exposure” value (safety set, Grade >=3) of the same compound?
Answer: The value was 0 n (%).

Question: And the “Safety topic: Renal toxicity” value (safety set, Grade >=3)?
Answer: The value was 2 (0.9) n (%).

Question: And the “Safety topic: Second primary malignancies” value (safety set, Grade >=3)?
Answer: The value was 1 (0.4) n (%).

Question: And the “Serious AE preferred term: Anaemia” value (safety set, Grade >=3)?
Answer: Its value is 1 (0.4) n (%).

Question: What about the “Serious AE preferred term: Haematuria” value (safety set, Grade >=3) of the same compound?
Answer: Its value is 0 n (%).

Question: And the “Serious AE preferred term: Pain” value (safety set, Grade >=3)?
Answer: Its value is 1 (0.4) n (%).

Question: What about the “Serious AE preferred term: Spinal cord compression” value (safety set, Grade >=3) of the same compound?
Answer: Its value is 2 (0.9) n (%).

Question: And the “Serious AE preferred term: Urinary retention” value (safety set, Grade >=3)?
Answer: The value was 1 (0.4) n (%).

Question: What about the “Serious AE preferred term: Urinary tract infection” value (safety set, Grade >=3) of the same compound?
Answer: The value was 3 (1.3) n (%).

Question: And the “Serious adverse events (subjects with at least one event)” value (safety set, Grade >=3)?
Answer: Its value is 30 (13.3) n (%).

Question: What about the “Serious adverse events, Treatment-related” value (safety set, Grade >=3) of the same compound?
Answer: Its value is 4 (1.8) n (%).

Question: What about the “On-treatment deaths: COVID-19 pneumonia” value (safety set, preferred term) of the same compound?
Answer: The value was 1 (0.4) n (%).

Question: And the “On-treatment deaths: Cardiac arrest” value (safety set, preferred term)?
Answer: The value was 1 (0.4) n (%).
